Holding throughout (type): in vivo
One assay concerns microglia. The assay can be described thus: Hippocampal microglia anti-CD11b immunohistochemistry grading (0-3) after tibial surgery. As to conditions: wild type mice, 1 day after surgery. From the text: Immunohistochemistry. Fixed brains were collected for immunohistochemical DAB staining for CD11 b and scored as previously described^21. (For further details please refer to supplemental methods).
Under terminal anesthesia with pentobarbital, mice were euthanized and perfused transcardially with ice-cold heparinized 0.1M phosphate buffer solution (PBS) followed by 4% paraformaldehyde in 0.1M PBS at pH 7.4 (VWR International, Lutterworth, Leicester, UK). The brains were harvested and post-fixed in 4% paraformaldehyde in 0.1M PBS at 4° C. and cryoprotected in 0.1M PBS solutions containing 15% sucrose for 24 hours (VWR International, Lutterworth, Leicester, UK) and then 30% sucrose for a further 48 hours. […]
Immunohistochemistry: Fixed brains were collected for immunohistochemical DAB staining for microglia activation using CD11 b and scored as previously described (13).
Methods: Adult C56BL/6J male mice were randomly assigned into groups that were: 1) untreated (naïve) animals; 2) tibial fracture under GA and analgesia; 3) 24 h following tibial surgery, i.p. injection of LPS (1 mg/kg) 4) LPS injection only. Separate cohorts of mice per group were assessed for inflammatory markers (plasma cytokines and microglial activation), or hippocampal-dependent memory using trace fear conditioning (TFC).

For assay [1], the system named is C57BL/6 male mice. Kind of assay: Trace fear conditioning, contextual fear response after LPS injection. As to conditions: LPS within 30 min after training, tested day 3, IL-1Ra pre-treatment. How it is done:
Treatment. LPS derived from Escherichia Coli endotoxin ([…], InvivoGen, USA, 1 mg/kg) was dissolved in normal saline and injected intraperitoneally. IL-1Ra (Amgen, Anakinra 100 mg/kg, Nederlands) was given subcutaneously immediately before LPS administration. Dose response curve from LPS or IL-1Ra was obtained from our pilot studies to provoke or to suppress moderate degree of microglia activation respectively. Control animals were injected with equivalent volumes (0.1 ml) of saline. Mice from each treatment group were randomly assigned for assessment of either cytokine response or cognitive behavior, in order to obviate possible confounding effects of behavioral testing on inflammatory markers.
Behavioral measurement (conditioning). The behavioral study was conducted using a dedicated conditioning chamber (Med Associates Inc., USA). Mice were trained and tested on separate days. LPS was injected within 30 minutes following training. […] Three days after training, mice were returned to the same chamber in which training occurred (context), and freezing behavior was recorded. […] Approximately 3 h later, freezing was recorded in a novel environment and in response to the cue (tone). The auditory cue was then presented for 3 min, and freezing scored again. Freezing scores for each subject were expressed as a percentage for each portion of the test. […]

Assay [2] has as its system C57BL/6 male mice. Kind of assay: Observation of sickness behavior after LPS injection. To be noted: LPS 1 mg/kg i.p.; IL-1Ra pre-treatment. The method, then:
Animals. All the experiments were conducted under the UK Home Office approved license. Wild type C57BL/6 male mice, 12-14 weeks old, weighting 25-30 g were used and housed in groups of five in a 12-h-12-h light dark cycle, with controlled temperature and humidity with free access to food and water. IL-1R^−/− (kindly provided by Nancy Rothwell, University of Manchester) were bred in-house on a C57BL/6 background and age-matched to wild type counterparts. Seven days of acclimatization were allowed before starting any experiment. All the animals were checked on a daily basis and evidence of poor grooming, huddling, piloerection, weight loss, back arching and abnormal activity, were excluded in the experiments.
Treatment. LPS derived from Escherichia Coli endotoxin ([…], InvivoGen, USA, 1 mg/kg) was dissolved in normal saline and injected intraperitoneally. IL-1Ra (Amgen, Anakinra 100 mg/kg, Nederlands) was given subcutaneously immediately before LPS administration. Dose response curve from LPS or IL-1Ra was obtained from our pilot studies to provoke or to suppress moderate degree of microglia activation respectively. Control animals were injected with equivalent volumes (0.1 ml) of saline. […]

“Also recorded” adds a separate entry of the source.

For “IL-1Ra: IL-1 receptor antagonist (Amgen, Anakinra)”, the “Reactive microgliosis in hippocampus (CD11b grading) after surgery, effect of treatment” value in the assay on microglia is listed as “surgery did not increase hippocampal microgliosis; also recorded: surgery did not activate microglia if IL-1Ra was given pre-operatively”. For the same substance, the “Contextual fear response (freezing) after LPS, effect of IL-1Ra” value with C57BL/6 male mice [1] was “significantly ameliorated the memory retention at day 3; also recorded: significantly ameliorated this cognitive dysfunction”. The “Symptoms of sickness behavior after LPS, effect of IL-1Ra” value in the assay with C57BL/6 male mice [2] is listed as “abolished the main symptoms of sickness behavior”.
